Reference: patent publication US20230277568A1, “METHOD OF TREATMENT FOR […] PSILOCIN INFUSION” (Eleusis Therapeutics US, Inc., priority 2020, published 2023)
“Also recorded” adds a separate entry of the source.

Assays:
WKY rats = test: Forced swim test in rat model of depression; format: in vivo; conditions: FST 21 days after injection
Protocol: A rat model of depression was used to assess the antidepressant effect of psilocin alone or in combination with lorazepam. WKY rats were divided into 3 groups (n=8 animals per group) and treated with (i) 1 mg/kg of psilocin injected as a bolus dose into the tail vein (PSI); (ii) 1.8 mg/kg of lorazepam injected 30 i.p. minutes prior to a 1 mg/kg tail vein injection of psilocin (P+L); or (iii) saline (SAL; as a control group). The dose of lorazepam was chosen to be a moderate/low non-sedating but anxiolytic dose in rats after consultation with an expert in the field of benzodiazepine's effects in rats.
After injection treatment, rats were maintained in their home cage for three weeks (21 days) prior to testing by forced swim test (FST) as described in Hibicke et al., ACS Chem. Neurosci. 2020, 11, 6, 864-871.
Forced Swim Test methodology: During a pre-exposure, rats were placed into a plastic cylindrical tank (114 cm×30.5 cm) that contained 30 cm of water at 28-30° C. The water depth was such that the rats could not support themselves by touching the bottom of the tank with their hind paws, and their tails could not touch the bottom of the tank while keeping their noses above water. After a 15 min swim, the rats were removed, dried with paper towels, and replaced in their home cages. Fresh water was used for each animal. For the testing, a video camera was mounted to the side of the tank, and the rats were exposed to a 5 min swim under the conditions described above and then removed, dried with paper towels, and returned to their home cages. The 5 min swim was recorded for later scoring for immobility, swimming, and climbing. FST scoring was performed by a trained scorer. Immobility was defined as no active attempts to escape while maintaining a floating posture in which the rats make only the movements necessary to keep their heads above water. Swimming was defined as actively attempting escape with motions directed outward against the wall of the cylinder. Climbing was defined as actively attempting escape with motions directed upward against the wall of the cylinder.

5-HT2A receptor = 5-HT2A receptor (Homo sapiens, UniProt P28223); conditions: background statement; cited from earlier work
Sequence of 5-HT2A receptor (P28223 whole entry): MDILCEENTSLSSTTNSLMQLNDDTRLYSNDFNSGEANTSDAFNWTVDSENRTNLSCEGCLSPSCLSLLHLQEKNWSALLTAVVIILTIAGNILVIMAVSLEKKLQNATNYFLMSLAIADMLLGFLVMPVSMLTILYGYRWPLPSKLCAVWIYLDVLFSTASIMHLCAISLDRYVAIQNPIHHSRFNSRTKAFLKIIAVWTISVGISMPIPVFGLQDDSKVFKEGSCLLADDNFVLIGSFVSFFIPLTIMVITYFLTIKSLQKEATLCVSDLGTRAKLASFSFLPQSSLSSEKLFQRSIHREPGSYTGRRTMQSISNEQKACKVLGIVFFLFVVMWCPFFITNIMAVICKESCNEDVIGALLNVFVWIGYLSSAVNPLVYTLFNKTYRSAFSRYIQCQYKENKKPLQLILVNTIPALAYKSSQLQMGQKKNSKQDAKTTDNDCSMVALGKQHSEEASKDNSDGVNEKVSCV

[1] = 1.8 mg/kg lorazepam i.p. 30 minutes prior to 1 mg/kg i.v. psilocin

| SMILES | effect of lorazepam pretreatment on the effects of psilocin, immobility measure (WKY rats; [1]) | effect of lorazepam pretreatment on the effects of psilocin, swimming behavior (WKY rats; [1]) | effect of lorazepam pretreatment on the effects of psilocin, immobility measure (WKY rats; 1.8 mg/kg lorazepam i.p. 30 minutes prior to 1 mg/kg i.v. psilocin, listed as lorazepam) | antidepressant-like behaviors in forced swim test (WKY rats; 1 mg/kg psilocin single i.v. bolus (tail vein), 1 mg/kg) | affinity for the 5-HT2A receptor (5-HT2A receptor) |
| --- | --- | --- | --- | --- | --- |
| O=C1Nc2ccc(Cl)cc2C(c2ccccc2Cl)=NC1O (centres unmarked) [Lorazepam] | slight but significant effect to blunt the effects of psilocin | no significant effect | slight, but significant effect | – | – |
| CN(C)CCc1c[nH]c2cccc(O)c12 [psilocin, 4-hydroxy-N,N-dimethyltrypamine] | – | – | – | as efficacious in producing long-lasting antidepressant-like behaviors in this model as a single i.p. administration of psilocybin of the same dose; also recorded: as efficacious in producing long-lasting antidepressant-like behaviors in our model as a single i.p. administration of psilocybin of the same dose | high affinity |
